In ChEMBL document CHEMBL4651402, “Screening of ~5500 FDA-approved drugs and clinical candidates for anti-SARS-CoV-2 activity” (2021):

Tested on: SARS-CoV-2
Test: microbe, parasite or virus in culture
Details: Severe acute respiratory syndrome coronavirus 2, Vero C1008, 48 h

Structure (SMILES)	IC50 [µM]	IC50 (read-out: pIC50 (converted)) [µM]
OCC1OC(Oc2ccc(O)cc2)C(O)C(O)C1O (stereo not given)	> 20	> 20
CONC(=O)c1ccccc1Nc1cc(Nc2cc(C)nn2C(C)C)ncc1Cl [GSK-2256098]	> 20	> 20
O=C1CC[C@@]2(O)[C@H]3Cc4ccc(O)c5c4[C@@]2(CCN3CC2CC2)[C@H]1O5 [NALTREXONE]	> 20	> 20
O[C@@H](CNC[C@H](O)[C@H]1CCc2cc(F)ccc2O1)[C@@H]1CCc2cc(F)ccc2O1	> 20	> 20
O=C(N[C@H]1CN2CCC1CC2)c1c[nH]c2ccsc2c1=O [PUMOSETRAG]	> 20	> 20
COc1ccc(-n2nc(C(N)=O)c3c2C(=O)N(c2ccc(N4CCCCC4=O)cc2)CC3)cc1 [APIXABAN]	> 20	> 20
COc1ccc2oc3ccccc3c(=O)c2c1	> 20	> 20
O=c1[nH]c(=O)c2ccccc2o1	> 20	> 20
Nc1ccc(S(=O)(=O)O)cc1	> 20	> 20
C[C@]12CC[C@H](O)CC1=CC[C@@H]1[C@@H]2CC[C@]2(C)C(c3cccnc3)=CC[C@@H]12 [ABIRATERONE]	> 20	> 20
COc1c2ccoc2nc2c(OC)c(OC[C@@H](O)C(C)(C)O)ccc12	> 20	> 20
C[C@H](CCc1ccccc1)NC[C@H](O)c1ccc(O)c(C(N)=O)c1 [DILEVALOL]	> 20	> 20
Cn1c(=O)cc(N2CCC[C@@H](N)C2)n(Cc2cc(F)ccc2C#N)c1=O [TRELAGLIPTIN]	> 20	> 20
Nc1nc(N)c(-c2ccccc2)s1 [AMIPHENAZOLE]	> 20	> 20
CC(=O)N[C@@H]1[C@@H](O)[C@@H](O)[C@@H](CO)O[C@@H]1O	> 20	> 20
COc1ccccc1N1CCNCC1	> 20	> 20
COc1cc(OC)c2c(=O)cc(-c3ccccc3)oc2c1 [CHRYSIN DIMETHYL ETHER]	> 20	> 20
CC(=O)N[C@@H](Cc1c[nH]c2ccccc12)C(N)=O [ACETYLTRYPTOPHANAMIDE]	> 20	> 20
CC12CCCC1C1CC[C@H]3CCCC[C@]3(C)C1CC2 (stereo not given in full)	> 20	> 20
CC(C)c1noc(N2CCC(COc3ccc(-c4ccc(S(C)(=O)=O)cc4)nc3)CC2)n1 [GSK-1292263]	> 20	> 20
CCOC(=O)C1=C(C)NC(C)=C(C(=O)OCC)C1c1cccc2nonc12 [DARODIPINE]	> 20	> 20
CC(C)CCCC(C)C1CCC2C3CCC4CC(=O)CCC4(C)C3CCC12C (stereo not given)	> 20	> 20
CC(C)[C@H](O)C(=O)N[C@@H](C)C(=O)N[C@@H]1C(=O)N(C)CCc2ccccc21	> 20	> 20
COc1cc(CCc2cc(NC(=O)c3ccc(N4C[C@@H](C)N[C@@H](C)C4)cc3)n[nH]2)cc(OC)c1 [FEXAGRATINIB]	> 20	> 20
Cc1cc2c(C(C)C)c(O)c(O)c(C=O)c2c(O)c1-c1c(C)cc2c(C(C)C)c(O)c(O)c(C=O)c2c1O [GOSSYPOL]	> 20	> 20

Structure (SMILES)	IC50 [µM]	IC50 (read-out: pIC50 (converted)) [µM]
C[C@@]12CCCCC[C@@H](Cc3ccc(O)cc31)[C@@H]2N [DEZOCINE]	> 20	> 20
CCN1CCN(c2ccc(Nc3cc(N(C)C(=O)Nc4c(Cl)c(OC)cc(OC)c4Cl)ncn3)cc2)CC1 [INFIGRATINIB]	> 20	> 20
OC[C@H]1O[C@@H](Oc2ccc(O)cc2)[C@H](O)[C@@H](O)[C@@H]1O [ARBUTIN]	> 20	> 20
Cc1cc(CCN2CCN(c3cccc(Cl)c3)CC2)n[nH]1 [MEPIPRAZOLE]	> 20	> 20
Nc1nonc1/C(=N/O)Nc1ccc(F)c(Cl)c1	> 20	> 20
c1ccc2c(c1)[nH]c1cnccc12 [NORHARMANE]	> 20	> 20
COCCc1ccc(OCC(O)CNC(C)C)cc1 (stereo not given) [METOPROLOL]	> 20	> 20
CN[C@@H]1[C@H](O[C@H]2[C@H](O[C@H]3[C@H](O)[C@@H](O)[C@H](N=C(N)N)[C@@H](O)[C@@H]3N=C(N)N)O[C@@H](C)[C@]2(O)C=O)O[C@@H](CO)[C@H](O)[C@H]1O [STREPTOMYCIN]	> 20	> 20
O=C(/C=C/c1ccc(O)cc1)c1ccccc1O	> 20	> 20
CCn1c(=O)n(CCCN2CCN(c3cccc(Cl)c3)CC2)n[13c]1[13CH2][13CH3]	> 20	> 20
Cc1ccccc1N1C(=O)c2cc(S(N)(=O)=O)c(Cl)cc2NC1C (stereo not given) [METOLAZONE]	> 20	> 20
O=c1cc2c(nn1-c1ccc(Cl)cc1)-c1ccccc1[S+]([O-])CC2 (stereo not given)	> 20	> 20
COc1cc(C(=O)NS(=O)(=O)c2ccccc2C)ccc1Cc1cn(C)c2ccc(NC(=O)OC3CCCC3)cc12 [ZAFIRLUKAST]	> 20	> 20
COc1c(N2C[C@@H]3CCCN[C@@H]3C2)c(F)cc2c(=O)c(C(=O)O)cn(C3CC3)c12 [MOXIFLOXACIN]	> 20	> 20
CCCCn1ccc(N2CCC(c3ccccc3)CC2)c(Cl)c1=O [JNJ-40411813]	> 20	> 20
C=CCn1c(=O)c2cnc(Nc3ccc(N4CCN(C)CC4)cc3)nc2n1-c1cccc(C(C)(C)O)n1 [ADAVOSERTIB]	> 20	> 20
NCCCCN [PUTRESCINE]	> 20	> 20
CN(CCCCCCCCCCN(C)C(=O)Oc1cccc([N+](C)(C)C)c1)C(=O)Oc1cccc([N+](C)(C)C)c1	> 20	> 20
CNCCCC1(C)C(=O)N(c2ccccc2)c2ccccc21 (stereo not given) [AMEDALIN]	> 20	> 20
CCCc1c2oc(C(=O)O)cc(=O)c2cc2c(=O)cc(C(=O)O)oc12 [PROBICROMIL]	> 20	> 20
C=C(C)C1Cc2c(ccc3c2OC2COc4cc(OC)c(OC)cc4C2C3=O)O1 (stereo not given)	> 20	> 20
Cn1c(=O)c2c(ncn2CC(=O)O)n(C)c1=O [ACEFYLLINE]	> 20	> 20
Cc1nc(N2CCOC[C@@H]2C)nc(-n2ccnc2)c1[N+](=O)[O-]	> 20	> 20
C[C@@H](N)Cc1c[nH]cn1	> 20	> 20
O[C@@H](COc1cccc2ncccc12)CN1CCN([C@@H]2c3ccccc3[C@@H]3[C@H](c4ccccc42)C3(F)F)CC1 [ZOSUQUIDAR]	> 20	> 20

Structure (SMILES)	IC50 [µM]	IC50 (read-out: pIC50 (converted)) [µM]
CN(C)CCO [DIMETHYLAMINOETHANOL]	> 20	> 20
O=C(O)c1ccc2c(c1)OCO2 [PIPERONYLIC ACID]	> 20	> 20
NC(=O)N1CCC(CC(=O)N2CCC([C@H]3c4ncc(Br)cc4CCc4cc(Cl)cc(Br)c43)CC2)CC1 [LONAFARNIB]	> 20	> 20
CCCCCCOc1ccccc1C(N)=O [EXALAMIDE]	> 20	> 20
Cc1cc(Nc2cc(N3CCN(C)CC3)nc(/C=C/c3ccccc3)n2)n[nH]1 [ENMD-2076]	> 20	> 20
Clc1ccc(C(Cn2ccnc2)OCc2c(Cl)cccc2Cl)cc1 (stereo not given) [ORCONAZOLE]	> 20	> 20
CC1(C)O[C@@H]2C[C@H]3[C@@H]4CCC5=CC(=O)C=C[C@]5(C)[C@@]4(F)[C@@H](O)C[C@]3(C)[C@]2(C(=O)CO)O1 [TRIAMCINOLONE ACETONIDE]	> 20	> 20
O=C1c2ccccc2C(=O)C1c1ccccc1 [PHENINDIONE]	> 20	> 20
O=C(COc1ccc(Cl)cc1)N1CCN(Cc2ccc3c(c2)OCO3)CC1 [FIPEXIDE]	> 20	> 20
NC1CCCCC1 [CYCLOHEXYLAMINE]	> 20	> 20
C(#CCN1CCCC1)CN1CCCC1	> 20	> 20
c1ccc2c(c1)OCC(CN1CCCCC1)O2 (stereo not given) [PIPEROXAN]	> 20	> 20
O=C1C(=O)c2ncccc2-c2cccnc21 [PHANQUONE]	> 20	> 20
Cc1nnc(C(C)C)n1[C@H]1C[C@H]2CC[C@@H](C1)N2CC[C@H](NC(=O)C1CCC(F)(F)CC1)c1ccccc1 [MARAVIROC]	> 20	> 20
C[C@H]1O[C@@H](O[C@H]2[C@@H](O)C[C@H](O[C@H]3[C@@H](O)C[C@H](O[C@H]4CC[C@@]5(C)[C@H](CC[C@@H]6[C@@H]5CC[C@]5(C)[C@@H](C7=CC(=O)OC7)CC[C@]65O)C4)O[C@@H]3C)O[C@@H]2C)C[C@H](O)[C@@H]1O [DIGITOXIN]	> 20	> 20
CCCn1c(=O)c2[nH]cnc2n(-c2ccc(Cl)cc2)c1=O [AROFYLLINE]	> 20	> 20
C/N=C(/NC)NCc1ccc(OC)cc1 [MEOBENTINE]	> 20	> 20
CC1COc2c(N3CCN(C)CC3)c(F)cc3c(=O)c(C(=O)O)cn1c23 (stereo not given) [OFLOXACIN]	> 20	> 20
COc1cc2ccc(=O)oc2cc1O [SCOPOLETIN]	> 20	> 20
COC(=O)[C@H](c1ccccc1)N1CCC(c2ccc(NC(=O)c3ccccc3-c3ccc(C(F)(F)F)cc3)cc2)CC1 [USISTAPIDE]	> 20	> 20
CN(CCO)CC(O)Cn1cnc2c1c(=O)n(C)c(=O)n2C (stereo not given) [XANTHINOL]	> 20	> 20
CC(C)(C)NC[C@H](O)COc1cccc2c1CCCC2=O [LEVOBUNOLOL]	> 20	> 20
CC(C)[C@H]1CC[C@H](C(=O)N[C@H](Cc2ccccc2)C(=O)O)CC1 [NATEGLINIDE]	> 20	> 20
CCCCC(C)(O)C/C=C/[C@H]1[C@H](O)CC(=O)[C@@H]1CCCCCCC(=O)OC (stereo not given in full) [MISOPROSTOL]	> 20	> 20
NCCc1cc[nH]n1 [BETAZOLE]	> 20	> 20
